Values quoted from earlier work, collected in paper PMC11600176 (JACS Au, 2024).

Conditions: aerated acetonitrile

CCCN1C(=O)c2cccc3c(N)ccc(c23)C1=O [N-propyl-4-amino-1,8-naphthalimide]
Φf fluorescence quantum yield of the standard: 0.48
